Test results reported in PubChem BioAssay AID328 (DTP/NCI, 2004).
“And” between values parts separate entries of the source, which are not always exact repeats. Equal values may be shown once. Toxic doses and inconclusive results are not listed.

System: BDF1 mice, P388 leukemia ip, median survival T/C
Test: NCI In Vivo Anticancer Drug Screen. Data for tumor model P388 Leukemia (intraperitoneal) in B6D2F1 (BDF1) mice
Settings: endpoint: median survival time, higher = longer survival
How it was run: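 Compound-treated tumour-bearing mice were compared with vehicle-treated controls. Survival was recorded, and the value is the treated-group measurement divided by the control-group measurement (T/C).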

[1] = dose: 12.5 mg/kg/injection, schedule: Q01DX009 (ip), vehicle: saline
[2] = dose: 37.5 mg/kg/injection, schedule: Q01DX009 (ip), vehicle: saline
[3] = dose: 100.0 mg/kg/injection, schedule: Q04DX003 (ip), vehicle: Klucel (hydroxypropylcellulose) (HPC)
[4] = dose: 200.0 mg/kg/injection, schedule: Q04DX003 (ip), vehicle: Klucel (hydroxypropylcellulose) (HPC)
[5] = dose: 400.0 mg/kg/injection, schedule: Q04DX003 (ip), vehicle: Klucel (hydroxypropylcellulose) (HPC)
[6] = dose: 100.0 mg/kg/injection, schedule: Q04DX003 (ip), vehicle: saline with Tween-80
[7] = dose: 200.0 mg/kg/injection, schedule: Q04DX003 (ip), vehicle: saline with Tween-80
[8] = dose: 400.0 mg/kg/injection, schedule: Q04DX003 (ip), vehicle: saline with Tween-80
[9] = dose: 50.0 mg/kg/injection, schedule: Q01DX009 (ip), vehicle: saline with Tween-80
[10] = dose: 200.0 mg/kg/injection, schedule: Q01DX009 (ip), vehicle: saline with Tween-80

For `CC1=[N+](C)C(C)(C)CC(C)O1` (stereo not drawn), the T/C (dose: 4.5 mg/kg/injection, schedule: Q01DX009 (ip), vehicle: saline) was 100 % of control, the T/C (dose: 6.25 mg/kg/injection, schedule: Q01DX009 (ip), vehicle: saline) was 100 % of control and the T/C (dose: 7.0 mg/kg/injection, schedule: Q01DX009 (ip), vehicle: saline) was 108 % of control. For the same compound, the T/C (dose: 11.0 mg/kg/injection, schedule: Q01DX009 (ip), vehicle: saline) was 100 % of control, the T/C [1] was 95 % of control and the T/C (dose: 16.5 mg/kg/injection, schedule: Q01DX009 (ip), vehicle: saline) was 103 % of control and 104 % of control. The T/C [2] was 92 % of control and 109 % of control and the T/C (dose: 200.0 mg/kg/injection, schedule: Q01DX009 (ip), vehicle: saline) was 90 % of control.
With `CC(C)c1c[nH]c(=O)[nH]c1=O` the T/C (dose: 100.0 mg/kg/injection, schedule: Q01DX001 (ip), vehicle: saline) was 100 % of control, the T/C [3] was 104 % of control and the T/C (dose: 200.0 mg/kg/injection, schedule: Q01DX001 (ip), vehicle: saline) was 95 % of control. For the same compound, the T/C [4] was 90 % of control, the T/C (dose: 400.0 mg/kg/injection, schedule: Q01DX001 (ip), vehicle: saline) was 100 % of control and the T/C [5] was 104 % of control.
For `Cc1cccc(NC(=S)N(C)C)c1`, the T/C [6] was 95 % of control, the T/C [7] was 100 % of control and the T/C [8] was 100 % of control.
With `CCN(CC)c1cccc(N)c1` the T/C (dose: 50.0 mg/kg/injection, schedule: Q01DX009 (sc), vehicle: olive oil, sesame oil, peanut oil) was 104 % of control, the T/C (dose: 50.0 mg/kg/injection, schedule: Q04DX003 (sc), vehicle: olive oil, sesame oil, peanut oil) was 100 % of control and the T/C (dose: 100.0 mg/kg/injection, schedule: Q01DX009 (sc), vehicle: olive oil, sesame oil, peanut oil) was 87 % of control. The T/C (dose: 100.0 mg/kg/injection, schedule: Q04DX003 (sc), vehicle: olive oil, sesame oil, peanut oil) was 104 % of control and the T/C (dose: 200.0 mg/kg/injection, schedule: Q04DX003 (sc), vehicle: olive oil, sesame oil, peanut oil) was 100 % of control.
With `CCCCCNC(=O)Nc1cccc(Cl)c1C` the T/C (dose: 6.25 mg/kg/injection, schedule: Q01DX009 (ip), vehicle: saline with Tween-80) was 116 % of control, the T/C (dose: 12.5 mg/kg/injection, schedule: Q01DX009 (ip), vehicle: saline with Tween-80) was 109 % of control and the T/C (dose: 25.0 mg/kg/injection, schedule: Q01DX009 (ip), vehicle: saline with Tween-80) was 108 % of control. The T/C [9] was 99 % of control.
For `CCCCCCCC/C=C\CCCCCCCC(=O)OC`, the T/C [6] was 96 % of control, the T/C [10] was 120 % of control and the T/C [7] was 103 % of control. The T/C [8] was 88 % of control.
With `CC(=O)OC(c1nc2ccccc2c(=O)n1C1CC2(OC1=O)c1ccccc1N1C(=O)C(C)N(O)C12)C(C)C` (stereo not drawn) the T/C (dose: 4.0 mg/kg/injection, schedule: Q01DX009 (ip), vehicle: Klucel (hydroxypropylcellulose) (HPC)) was 93 % of control, the T/C (dose: 8.0 mg/kg/injection, schedule: Q01DX009 (ip), vehicle: Klucel (hydroxypropylcellulose) (HPC)) was 101 % of control and the T/C (dose: 16.0 mg/kg/injection, schedule: Q01DX009 (ip), vehicle: Klucel (hydroxypropylcellulose) (HPC)) was 110 % of control. The T/C (dose: 32.0 mg/kg/injection, schedule: Q01DX009 (ip), vehicle: Klucel (hydroxypropylcellulose) (HPC)) was 100 % of control.
In the case of `COc1cc2cc[n+]3c(C)c4cc5c(cc4cc3c2cc1OC)OCO5` (tested in a mixture with another compound), the T/C (dose: 2.2 mg/kg/injection, schedule: Q01DX009 (ip), vehicle: saline) is reported as 158 % of control, the T/C (dose: 3.3 mg/kg/injection, schedule: Q01DX009 (ip), vehicle: saline) is reported as 163 % of control and the T/C (dose: 5.0 mg/kg/injection, schedule: Q01DX009 (ip), vehicle: saline) is reported as 174 % of control. The T/C (dose: 7.5 mg/kg/injection, schedule: Q01DX009 (ip), vehicle: saline) was 186 % of control, the T/C [1] was 230 % of control and the T/C (dose: 25.0 mg/kg/injection, schedule: Q01DX009 (ip), vehicle: saline) was 123 % of control. The T/C (dose: 50.0 mg/kg/injection, schedule: Q01DX009 (ip), vehicle: saline) was 102 % of control.
`CC(CN(C)C)C(=O)/C=C/c1ccccc1` (stereo not drawn) was tested, and the T/C (dose: 18.75 mg/kg/injection, schedule: Q01DX009 (ip), vehicle: saline) was 100 % of control, the T/C [2] was 109 % of control and the T/C (dose: 75.0 mg/kg/injection, schedule: Q01DX009 (ip), vehicle: saline) was 109 % of control.
`COC(=O)CC1C(=O)C(C)(C(=O)OC)CCC1c1ccc(OC)cc1` (stereo not drawn) was tested, and the T/C (dose: 100.0 mg/kg/injection, schedule: Q04DX003 (ip), vehicle: saline) was 109 % of control, the T/C (dose: 200.0 mg/kg/injection, schedule: Q04DX003 (ip), vehicle: saline) was 109 % of control and the T/C (dose: 400.0 mg/kg/injection, schedule: Q04DX003 (ip), vehicle: saline) was 104 % of control.
`CC(=O)OCCC/C(=C\c1ccc2ccccc2c1)[N+](=O)[O-]` was tested, and the T/C (dose: 100.0 mg/kg/injection, schedule: Q01DX009 (ip), vehicle: Klucel (hydroxypropylcellulose) (HPC)) was 118 % of control and the T/C (dose: 200.0 mg/kg/injection, schedule: Q01DX009 (ip), vehicle: Klucel (hydroxypropylcellulose) (HPC)) was 122 % of control.
With `CCOC(=O)c1[nH]c2c(c1CC(CC)[N+](=O)[O-])CCCC2` (stereo not drawn) the T/C [3] was 95 % of control, the T/C [4] was 100 % of control and the T/C [5] was 91 % of control.
With `O=S(=O)(Nc1ccccn1)c1ccc(N(CCCl)CCCl)cc1` the T/C [9] was 100 % of control, the T/C (dose: 100.0 mg/kg/injection, schedule: Q01DX009 (ip), vehicle: saline with Tween-80) was 95 % of control and the T/C [10] was 90 % of control.
For `CC(NC(=O)OCc1ccccc1)C(=O)NCCN(C)C` (stereo not drawn), the T/C (dose: 50.0 mg/kg/injection, schedule: Q01DX005 (ip), vehicle: saline) was 100 % of control, the T/C (dose: 100.0 mg/kg/injection, schedule: Q01DX005 (ip), vehicle: saline) was 91 % of control and the T/C (dose: 200.0 mg/kg/injection, schedule: Q01DX005 (ip), vehicle: saline) was 100 % of control.
In the case of `C#CCCC#C`, the T/C (dose: 50.0 mg/kg/injection, schedule: Q04DX003 (ip), vehicle: saline with Tween-80) is reported as 100 % of control, the T/C (dose: 67.0 mg/kg/injection, schedule: Q01DX005 (ip), vehicle: saline with Tween-80) is reported as 96 % of control and the T/C (dose: 100.0 mg/kg/injection, schedule: Q01DX005 (ip), vehicle: saline with Tween-80) is reported as 115 % of control. For the same compound, the T/C [6] was 104 % of control, the T/C (dose: 150.0 mg/kg/injection, schedule: Q01DX005 (ip), vehicle: saline with Tween-80) was 92 % of control and the T/C [10] was 103 % of control. For the same compound, the T/C [7] was 108 % of control and the T/C (dose: 400.0 mg/kg/injection, schedule: Q01DX009 (ip), vehicle: saline with Tween-80) was 111 % of control.
With `C(#C[P+]1(c2ccccc2)C=C(c2ccccc2)OC(c2ccccc2)=C1)c1ccccc1` the T/C (dose: 50.0 mg/kg/injection, schedule: Q01DX005 (ip), vehicle: saline with Tween-80) was 110 % of control.
`c1cc[c]([Pb]([c]2ccccc2)([c]2ccccc2)[n]2c3ccccc3c3ccccc32)cc1` was tested, and the T/C (dose: 0.19 mg/kg/injection, schedule: Q01DX009 (ip), vehicle: saline) was 90 % of control, the T/C (dose: 0.39 mg/kg/injection, schedule: Q01DX009 (ip), vehicle: saline) was 100 % of control and the T/C (dose: 0.78 mg/kg/injection, schedule: Q01DX009 (ip), vehicle: saline) was 95 % of control. The T/C (dose: 1.56 mg/kg/injection, schedule: Q01DX009 (ip), vehicle: saline) was 100 % of control, the T/C (dose: 3.0 mg/kg/injection, schedule: Q04DX003 (ip), vehicle: saline) was 112 % of control and the T/C (dose: 4.12 mg/kg/injection, schedule: Q01DX009 (ip), vehicle: saline) was 100 % of control. The T/C (dose: 6.0 mg/kg/injection, schedule: Q04DX003 (ip), vehicle: saline) was 116 % of control and the T/C (dose: 12.0 mg/kg/injection, schedule: Q04DX003 (ip), vehicle: saline) was 104 % of control.
With `Nc1ncnc2c1ncn2C1OC(COP(=O)(O)O)C(O)C1O` (stereo not drawn) the T/C (dose: 18.8 mg/kg/injection, schedule: Q03HX016 (ip), vehicle: saline) was 121 % of control, the T/C (dose: 100.0 mg/kg/injection, schedule: Q03HX016 (ip), vehicle: saline) was 157 % of control and the T/C (dose: 100.0 mg/kg/injection, schedule: Q03HX024 (ip), vehicle: saline) was 151 % of control. The T/C (dose: 150.0 mg/kg/injection, schedule: Q03HX016 (ip), vehicle: saline) was 169 % of control and the T/C (dose: 150.0 mg/kg/injection, schedule: Q03HX024 (ip), vehicle: saline) was 178 % of control.
With `CCc1ccc(O)c(C(=O)c2c[nH]c(=O)c(C(N)=O)c2)c1` the T/C (dose: 50.0 mg/kg/injection, schedule: Q04DX002 (ip), vehicle: saline with Tween-80) was 103 % of control, the T/C (dose: 100.0 mg/kg/injection, schedule: Q04DX002 (ip), vehicle: saline with Tween-80) was 94 % of control and the T/C (dose: 200.0 mg/kg/injection, schedule: Q04DX002 (ip), vehicle: saline with Tween-80) was 99 % of control.
